Assays:
[1] = biological target: Sigma intracellular receptor 2 (Homo sapiens, UniProt Q5BJF2); assay: (§1) PDSP Secondary Binding target: TMEM97 - Compounds are tested at 10 uM concentration, plate are incubated at room temperature in the dark for 90 minutes. Reaction are stopped by vacuum filtration onto 0.3% polyethyleneimine soaked filter mats using Filtermate harvester. Scintillation cocktail is then melted onto microwave-dried filters on a hot plate and the radio activity is counted in Microbia counter.
[2] = biological target: Beta-3 adrenergic receptor (Homo sapiens, UniProt P13945); assay: as §1, with “ADRB3” for “TMEM97”
Sequence of Beta-3 adrenergic receptor (P13945 whole entry): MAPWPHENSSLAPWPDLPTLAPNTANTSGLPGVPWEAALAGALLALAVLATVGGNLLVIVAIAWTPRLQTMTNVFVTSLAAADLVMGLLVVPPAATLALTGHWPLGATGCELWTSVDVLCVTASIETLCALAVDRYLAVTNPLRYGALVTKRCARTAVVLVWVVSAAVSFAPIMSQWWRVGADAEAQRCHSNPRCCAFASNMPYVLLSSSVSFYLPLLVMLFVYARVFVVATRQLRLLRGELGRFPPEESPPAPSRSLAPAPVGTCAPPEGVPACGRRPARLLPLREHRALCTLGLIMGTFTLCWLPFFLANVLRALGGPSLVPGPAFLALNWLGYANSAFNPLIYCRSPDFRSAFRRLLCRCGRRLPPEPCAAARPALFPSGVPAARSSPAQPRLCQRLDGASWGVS

[3] = biological target: Sigma non-opioid intracellular receptor 1 (Homo sapiens, UniProt Q99720); assay: as §1, with “SIGMAR1” for “TMEM97”
Sequence of Sigma non-opioid intracellular receptor 1 (Q99720 whole entry): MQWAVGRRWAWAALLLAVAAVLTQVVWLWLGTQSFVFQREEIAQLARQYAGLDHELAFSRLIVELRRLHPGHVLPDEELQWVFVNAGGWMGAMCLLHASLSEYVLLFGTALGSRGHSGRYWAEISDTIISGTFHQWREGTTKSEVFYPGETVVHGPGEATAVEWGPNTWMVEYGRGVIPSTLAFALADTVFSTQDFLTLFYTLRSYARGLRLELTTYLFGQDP

[4] = biological target: 5-hydroxytryptamine receptor 2B (Homo sapiens, UniProt P41595); assay: as §1, with “HTR2B” for “TMEM97”
Sequence of 5-hydroxytryptamine receptor 2B (P41595 whole entry): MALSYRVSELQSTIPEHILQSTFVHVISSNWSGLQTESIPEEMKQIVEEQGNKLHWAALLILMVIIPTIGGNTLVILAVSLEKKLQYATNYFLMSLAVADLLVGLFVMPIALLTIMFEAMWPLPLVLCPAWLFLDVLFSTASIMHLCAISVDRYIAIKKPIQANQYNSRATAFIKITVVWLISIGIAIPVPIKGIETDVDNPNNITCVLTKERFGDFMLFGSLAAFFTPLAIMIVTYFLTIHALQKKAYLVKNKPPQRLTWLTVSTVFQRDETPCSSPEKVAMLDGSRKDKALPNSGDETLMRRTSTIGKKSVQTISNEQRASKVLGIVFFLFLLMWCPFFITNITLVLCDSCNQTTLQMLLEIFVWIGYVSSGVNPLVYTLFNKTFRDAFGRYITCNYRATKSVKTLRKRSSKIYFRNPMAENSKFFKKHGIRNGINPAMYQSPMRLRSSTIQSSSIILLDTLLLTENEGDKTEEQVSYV

Mu-type opioid receptor = Mu-type opioid receptor (Homo sapiens, UniProt P35372); assay: as §1, with “OPRM1” for “TMEM97”
Sequence of Mu-type opioid receptor (P35372 whole entry): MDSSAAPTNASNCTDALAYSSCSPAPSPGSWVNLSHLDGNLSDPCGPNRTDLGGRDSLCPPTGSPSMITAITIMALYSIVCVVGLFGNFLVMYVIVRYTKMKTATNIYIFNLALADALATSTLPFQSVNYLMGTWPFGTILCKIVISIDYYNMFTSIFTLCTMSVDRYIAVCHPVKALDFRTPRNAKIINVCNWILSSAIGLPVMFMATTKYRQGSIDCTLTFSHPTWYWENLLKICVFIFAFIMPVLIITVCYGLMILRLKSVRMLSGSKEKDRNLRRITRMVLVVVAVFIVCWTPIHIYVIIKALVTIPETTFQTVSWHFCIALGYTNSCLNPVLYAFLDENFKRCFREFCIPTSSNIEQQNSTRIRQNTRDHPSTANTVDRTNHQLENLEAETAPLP

[5] = biological target: 5-hydroxytryptamine receptor 5A (Homo sapiens, UniProt P47898); assay: as §1, with “HTR5A” for “TMEM97”
Sequence of 5-hydroxytryptamine receptor 5A (P47898 whole entry): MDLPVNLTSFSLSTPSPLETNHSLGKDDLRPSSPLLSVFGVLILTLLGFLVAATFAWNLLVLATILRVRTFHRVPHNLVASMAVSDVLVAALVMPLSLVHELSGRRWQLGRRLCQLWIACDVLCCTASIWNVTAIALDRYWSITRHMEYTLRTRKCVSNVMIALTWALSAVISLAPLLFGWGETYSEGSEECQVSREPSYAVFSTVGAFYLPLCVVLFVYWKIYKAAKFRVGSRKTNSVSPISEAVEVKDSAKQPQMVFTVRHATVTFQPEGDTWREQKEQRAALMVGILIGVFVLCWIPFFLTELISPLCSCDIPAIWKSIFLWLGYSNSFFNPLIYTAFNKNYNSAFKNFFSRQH

[6] = biological target: 5-hydroxytryptamine receptor 1D (Homo sapiens, UniProt P28221); assay: as §1, with “HTR1D” for “TMEM97”
Sequence of 5-hydroxytryptamine receptor 1D (P28221 whole entry): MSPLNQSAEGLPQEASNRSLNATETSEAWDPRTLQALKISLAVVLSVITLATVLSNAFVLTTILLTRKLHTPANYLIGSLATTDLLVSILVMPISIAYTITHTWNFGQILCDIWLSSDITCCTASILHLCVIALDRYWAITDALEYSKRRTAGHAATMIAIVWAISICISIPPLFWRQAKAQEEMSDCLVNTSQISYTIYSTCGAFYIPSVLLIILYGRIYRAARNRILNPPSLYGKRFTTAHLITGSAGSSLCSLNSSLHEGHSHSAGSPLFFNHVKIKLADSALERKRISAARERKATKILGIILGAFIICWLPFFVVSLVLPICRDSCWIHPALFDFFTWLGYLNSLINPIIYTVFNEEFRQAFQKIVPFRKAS

[7] = biological target: T1, Alpha-1B adrenergic receptor (Homo sapiens, UniProt P35368); assay: as §1, with “ADRA1B” for “TMEM97”
T1 sequence (P35368 whole entry): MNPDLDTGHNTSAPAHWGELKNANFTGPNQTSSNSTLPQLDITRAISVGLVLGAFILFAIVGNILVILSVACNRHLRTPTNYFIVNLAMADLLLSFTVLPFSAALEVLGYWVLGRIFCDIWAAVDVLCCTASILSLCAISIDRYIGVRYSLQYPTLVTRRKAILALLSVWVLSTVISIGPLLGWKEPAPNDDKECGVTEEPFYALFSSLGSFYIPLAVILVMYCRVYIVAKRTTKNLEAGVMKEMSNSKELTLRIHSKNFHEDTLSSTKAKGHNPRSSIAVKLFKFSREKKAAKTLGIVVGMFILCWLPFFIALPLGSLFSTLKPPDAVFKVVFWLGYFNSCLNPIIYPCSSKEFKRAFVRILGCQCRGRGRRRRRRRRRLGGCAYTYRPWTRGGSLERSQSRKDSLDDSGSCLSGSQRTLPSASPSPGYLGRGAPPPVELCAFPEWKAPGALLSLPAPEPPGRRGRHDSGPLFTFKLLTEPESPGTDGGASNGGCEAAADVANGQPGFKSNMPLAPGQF

[8] = biological target: Sodium-dependent noradrenaline transporter (Homo sapiens, UniProt P23975); assay: as §1, with “SLC6A2” for “TMEM97”
[9] = biological target: T2, 5-hydroxytryptamine receptor 2C (Homo sapiens, UniProt P28335); assay: as §1, with “HTR2C” for “TMEM97”
T2 sequence (P28335 whole entry): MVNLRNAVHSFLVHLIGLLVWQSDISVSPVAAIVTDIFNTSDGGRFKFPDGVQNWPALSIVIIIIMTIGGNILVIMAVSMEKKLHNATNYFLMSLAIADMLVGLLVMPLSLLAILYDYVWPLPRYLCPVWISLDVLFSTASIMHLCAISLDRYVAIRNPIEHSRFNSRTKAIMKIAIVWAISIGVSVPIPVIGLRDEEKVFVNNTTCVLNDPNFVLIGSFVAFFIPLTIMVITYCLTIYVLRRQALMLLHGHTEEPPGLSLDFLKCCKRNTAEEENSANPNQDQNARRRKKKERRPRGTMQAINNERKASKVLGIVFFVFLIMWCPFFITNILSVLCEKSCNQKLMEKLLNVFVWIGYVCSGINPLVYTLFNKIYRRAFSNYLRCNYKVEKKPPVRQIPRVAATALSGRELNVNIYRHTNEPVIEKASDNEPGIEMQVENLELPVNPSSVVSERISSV

[10] = biological target: Kappa-type opioid receptor (Homo sapiens, UniProt P41145); assay: as §1, with “OPRK1” for “TMEM97”
Sequence of Kappa-type opioid receptor (P41145 whole entry): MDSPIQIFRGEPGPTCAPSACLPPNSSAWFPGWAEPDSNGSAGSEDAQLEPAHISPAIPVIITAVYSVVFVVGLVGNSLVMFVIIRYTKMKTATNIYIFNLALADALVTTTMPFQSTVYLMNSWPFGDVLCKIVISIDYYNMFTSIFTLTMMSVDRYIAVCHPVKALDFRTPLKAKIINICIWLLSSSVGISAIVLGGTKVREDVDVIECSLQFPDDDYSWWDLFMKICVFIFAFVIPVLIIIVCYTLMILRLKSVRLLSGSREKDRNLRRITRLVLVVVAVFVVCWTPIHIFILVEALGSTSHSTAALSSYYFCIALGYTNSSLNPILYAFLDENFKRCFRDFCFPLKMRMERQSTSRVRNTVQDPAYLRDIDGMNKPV

[11] = biological target: T3, Alpha-2A adrenergic receptor (Homo sapiens, UniProt P08913); assay: as §1, with “ADRA2A” for “TMEM97”
T3 sequence (P08913 whole entry): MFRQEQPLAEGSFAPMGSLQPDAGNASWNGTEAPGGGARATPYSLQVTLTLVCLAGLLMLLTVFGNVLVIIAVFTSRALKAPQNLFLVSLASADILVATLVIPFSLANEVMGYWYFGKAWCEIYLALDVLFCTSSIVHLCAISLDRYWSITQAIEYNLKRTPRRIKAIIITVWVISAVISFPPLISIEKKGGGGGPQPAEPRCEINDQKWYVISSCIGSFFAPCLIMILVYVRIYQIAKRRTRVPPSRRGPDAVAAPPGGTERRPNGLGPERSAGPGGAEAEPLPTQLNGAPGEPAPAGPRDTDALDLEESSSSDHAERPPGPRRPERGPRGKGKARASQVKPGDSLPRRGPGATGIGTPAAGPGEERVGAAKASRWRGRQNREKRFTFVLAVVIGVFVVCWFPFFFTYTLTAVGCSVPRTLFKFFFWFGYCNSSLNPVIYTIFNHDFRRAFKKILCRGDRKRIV

[12] = biological target: Beta-1 adrenergic receptor (Homo sapiens, UniProt P08588); assay: as §1, with “ADRB1” for “TMEM97”
Sequence of Beta-1 adrenergic receptor (P08588 whole entry): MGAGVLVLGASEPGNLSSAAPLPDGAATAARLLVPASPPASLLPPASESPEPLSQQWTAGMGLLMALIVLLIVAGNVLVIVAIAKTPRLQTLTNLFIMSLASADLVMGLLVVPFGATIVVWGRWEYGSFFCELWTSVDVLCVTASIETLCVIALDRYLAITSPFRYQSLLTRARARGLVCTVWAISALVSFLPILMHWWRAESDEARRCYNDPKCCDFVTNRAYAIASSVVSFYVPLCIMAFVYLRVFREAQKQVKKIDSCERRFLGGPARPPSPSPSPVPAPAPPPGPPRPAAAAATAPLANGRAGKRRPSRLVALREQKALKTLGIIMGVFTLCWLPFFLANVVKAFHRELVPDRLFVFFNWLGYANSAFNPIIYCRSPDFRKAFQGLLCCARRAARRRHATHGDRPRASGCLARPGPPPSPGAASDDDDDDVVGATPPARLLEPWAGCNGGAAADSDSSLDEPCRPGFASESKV

[13] = biological target: T4, 5-hydroxytryptamine receptor 3A (Homo sapiens, UniProt P46098); assay: as §1, with “HTR3A” for “TMEM97”
T4 sequence (P46098 whole entry): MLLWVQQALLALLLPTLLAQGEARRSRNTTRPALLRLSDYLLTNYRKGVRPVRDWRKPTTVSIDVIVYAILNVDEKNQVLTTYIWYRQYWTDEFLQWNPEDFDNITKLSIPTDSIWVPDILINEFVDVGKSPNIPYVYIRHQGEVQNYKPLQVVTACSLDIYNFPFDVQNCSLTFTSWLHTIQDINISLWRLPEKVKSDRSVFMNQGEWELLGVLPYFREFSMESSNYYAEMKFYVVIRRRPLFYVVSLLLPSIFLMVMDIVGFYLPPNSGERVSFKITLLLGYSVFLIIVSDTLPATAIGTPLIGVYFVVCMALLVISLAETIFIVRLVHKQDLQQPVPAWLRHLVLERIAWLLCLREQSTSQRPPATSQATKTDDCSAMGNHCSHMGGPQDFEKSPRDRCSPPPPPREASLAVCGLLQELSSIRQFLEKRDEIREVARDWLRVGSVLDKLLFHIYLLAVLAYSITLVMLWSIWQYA

Histamine H4 receptor = Histamine H4 receptor (Homo sapiens, UniProt Q9H3N8); assay: as §1, with “HRH4” for “TMEM97”
Sequence of Histamine H4 receptor (Q9H3N8 whole entry): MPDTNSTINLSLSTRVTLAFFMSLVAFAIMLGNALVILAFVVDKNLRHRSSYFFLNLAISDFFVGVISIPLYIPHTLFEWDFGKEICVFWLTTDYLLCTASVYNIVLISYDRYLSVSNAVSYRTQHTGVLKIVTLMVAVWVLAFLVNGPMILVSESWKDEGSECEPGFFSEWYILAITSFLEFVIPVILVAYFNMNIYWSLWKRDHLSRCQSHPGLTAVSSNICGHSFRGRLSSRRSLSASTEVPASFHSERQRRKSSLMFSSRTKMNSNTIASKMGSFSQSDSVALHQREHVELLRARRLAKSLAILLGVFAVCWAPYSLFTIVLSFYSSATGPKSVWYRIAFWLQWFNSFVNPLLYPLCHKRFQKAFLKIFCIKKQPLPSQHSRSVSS

Histamine H1 receptor = Histamine H1 receptor (Homo sapiens, UniProt P35367); assay: as §1, with “HRH1” for “TMEM97”
Sequence of Histamine H1 receptor (P35367 whole entry): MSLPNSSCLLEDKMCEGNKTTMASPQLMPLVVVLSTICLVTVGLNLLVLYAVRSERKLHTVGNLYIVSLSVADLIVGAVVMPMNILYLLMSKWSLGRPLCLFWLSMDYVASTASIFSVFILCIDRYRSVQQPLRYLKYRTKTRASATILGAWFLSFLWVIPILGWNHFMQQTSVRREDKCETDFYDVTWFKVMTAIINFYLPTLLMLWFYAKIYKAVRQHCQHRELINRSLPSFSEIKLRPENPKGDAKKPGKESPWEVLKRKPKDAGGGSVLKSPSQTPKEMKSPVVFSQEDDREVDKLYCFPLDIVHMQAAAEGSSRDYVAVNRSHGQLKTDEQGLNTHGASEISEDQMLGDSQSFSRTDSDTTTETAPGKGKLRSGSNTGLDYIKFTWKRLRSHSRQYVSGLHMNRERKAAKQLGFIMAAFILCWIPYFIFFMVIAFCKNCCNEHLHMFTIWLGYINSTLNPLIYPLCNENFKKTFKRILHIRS

[14] = biological target: Delta-type opioid receptor (Homo sapiens, UniProt P41143); assay: as §1, with “OPRD1” for “TMEM97”
Sequence of Delta-type opioid receptor (P41143 whole entry): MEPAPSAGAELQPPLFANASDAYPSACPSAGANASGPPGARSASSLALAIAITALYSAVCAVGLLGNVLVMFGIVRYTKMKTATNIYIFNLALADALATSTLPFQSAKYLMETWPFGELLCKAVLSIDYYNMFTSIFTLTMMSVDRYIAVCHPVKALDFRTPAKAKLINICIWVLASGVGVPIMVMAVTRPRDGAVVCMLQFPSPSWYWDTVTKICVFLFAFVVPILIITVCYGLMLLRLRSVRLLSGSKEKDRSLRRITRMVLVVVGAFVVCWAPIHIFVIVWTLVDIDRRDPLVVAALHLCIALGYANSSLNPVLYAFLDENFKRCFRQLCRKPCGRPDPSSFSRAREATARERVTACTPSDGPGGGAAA

[15] = biological target: 5-hydroxytryptamine receptor 2A (Homo sapiens, UniProt P28223); assay: as §1, with “HTR2A” for “TMEM97”
Sequence of 5-hydroxytryptamine receptor 2A (P28223 whole entry): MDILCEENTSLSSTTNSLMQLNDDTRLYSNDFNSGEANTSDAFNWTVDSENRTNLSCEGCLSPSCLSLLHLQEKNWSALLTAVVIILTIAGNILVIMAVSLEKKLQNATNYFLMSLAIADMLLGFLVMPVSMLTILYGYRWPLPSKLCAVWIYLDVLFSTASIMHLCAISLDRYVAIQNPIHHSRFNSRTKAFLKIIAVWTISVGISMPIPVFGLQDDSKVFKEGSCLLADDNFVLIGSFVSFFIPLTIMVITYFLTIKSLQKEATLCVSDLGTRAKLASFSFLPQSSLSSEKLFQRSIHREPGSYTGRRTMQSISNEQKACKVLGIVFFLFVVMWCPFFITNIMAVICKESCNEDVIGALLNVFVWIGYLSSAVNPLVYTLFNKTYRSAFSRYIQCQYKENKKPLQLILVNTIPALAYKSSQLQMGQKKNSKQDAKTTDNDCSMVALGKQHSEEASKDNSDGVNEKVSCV

[16] = biological target: T5, Alpha-1D adrenergic receptor (Homo sapiens, UniProt P25100); assay: as §1, with “ADRA1D” for “TMEM97”
T5 sequence (P25100 whole entry): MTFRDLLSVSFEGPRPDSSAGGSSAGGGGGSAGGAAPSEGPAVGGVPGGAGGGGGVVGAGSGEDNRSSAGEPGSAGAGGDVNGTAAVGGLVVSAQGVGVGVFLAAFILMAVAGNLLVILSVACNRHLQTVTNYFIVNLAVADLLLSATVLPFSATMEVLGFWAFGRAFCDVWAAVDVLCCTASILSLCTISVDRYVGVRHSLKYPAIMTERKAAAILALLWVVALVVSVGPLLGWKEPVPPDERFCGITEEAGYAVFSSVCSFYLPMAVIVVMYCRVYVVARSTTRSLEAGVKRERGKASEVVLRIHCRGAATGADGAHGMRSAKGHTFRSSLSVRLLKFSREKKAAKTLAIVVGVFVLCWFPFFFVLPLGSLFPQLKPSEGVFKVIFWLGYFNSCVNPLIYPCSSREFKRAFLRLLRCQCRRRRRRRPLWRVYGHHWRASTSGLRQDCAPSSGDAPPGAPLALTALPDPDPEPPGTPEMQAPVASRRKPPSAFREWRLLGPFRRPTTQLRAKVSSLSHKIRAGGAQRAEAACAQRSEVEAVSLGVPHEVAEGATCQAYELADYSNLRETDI

Compound `COc1ccc(NS(=O)(=O)c2sc3ccc(Cl)cc3c2C)cc1N1CCNCC1` has a Ki [1] of 663 nM, a Ki [2] of 2100 nM and a Ki [3] of 598 nM. For the same compound, the Ki [4] was 804 nM, the Ki (Mu-type opioid receptor) was 3580 nM and the Ki [5] was 1910 nM. The Ki [6] was 1080 nM, the Ki [7] was 2660 nM and the Ki [8] was 5620 nM. For the same compound, the Ki [9] was 1280 nM, the Ki [10] was 898 nM and the Ki [11] was 590 nM. For the same compound, the Ki [12] was 4460 nM and the Ki [13] was 988 nM.
In the case of `O=C(Nc1ccc(Cl)cc1)Nc1cccc(-c2cccc(N3CCCC3)n2)c1`, the Ki [2] is reported as over 10000 nM and the Ki [12] is reported as over 10000 nM.
With `Nc1nc2c(c(N3CCNCC3)n1)CCC1=C2[C@@H]2CCCC[C@@H]2O1` the Ki (Histamine H4 receptor) was 18 nM, the Ki (Histamine H1 receptor) was 1280 nM and the Ki [3] was 463 nM. For the same compound, the Ki [4] was 280 nM, the Ki [14] was over 10000 nM and the Ki [15] was 6430 nM. It also gave a Ki [16] of 8030 nM and a Ki [13] of 352 nM.

From ChEMBL document CHEMBL5442175, “EUbOPEN Chemogenomics Library - PDSP Secondary Binding” (2024)
